Where two headings read alike, the source gives them in different places.
Columns and labels:
[1] = tested on: EGFR Del19/T790M/C797S (H1975-clone #28); assay: EGFR degradation HTRF assay, H1975-clone #28 DTC cells; assay type: cell-based
How it was run: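 Engineered H1975 lines (lentiviral mutant EGFR, endogenous EGFR knocked out, single-clone verified); 16h compound, 37° C., 5% CO2, 0.2% DMSO; 8-point 5-fold series from 10 uM final. HTRF lysate read; % degradation vs DMSO, four-parameter fit → DC50, Dmax.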

[2] = molecular target: T1, EGFR L858R/T790M/C797S (BaF3-LTC cells) (Homo sapiens, UniProt P00533, C797S/L858R/T790M); assay: EGFR degradation HTRF assay, BaF3-LTC cells; assay type: cell-based
T1 construct: expressed in transfected cells; host or cells: BaF3
T1 sequence (P00533 25-1210 T790M/C797S/L858R): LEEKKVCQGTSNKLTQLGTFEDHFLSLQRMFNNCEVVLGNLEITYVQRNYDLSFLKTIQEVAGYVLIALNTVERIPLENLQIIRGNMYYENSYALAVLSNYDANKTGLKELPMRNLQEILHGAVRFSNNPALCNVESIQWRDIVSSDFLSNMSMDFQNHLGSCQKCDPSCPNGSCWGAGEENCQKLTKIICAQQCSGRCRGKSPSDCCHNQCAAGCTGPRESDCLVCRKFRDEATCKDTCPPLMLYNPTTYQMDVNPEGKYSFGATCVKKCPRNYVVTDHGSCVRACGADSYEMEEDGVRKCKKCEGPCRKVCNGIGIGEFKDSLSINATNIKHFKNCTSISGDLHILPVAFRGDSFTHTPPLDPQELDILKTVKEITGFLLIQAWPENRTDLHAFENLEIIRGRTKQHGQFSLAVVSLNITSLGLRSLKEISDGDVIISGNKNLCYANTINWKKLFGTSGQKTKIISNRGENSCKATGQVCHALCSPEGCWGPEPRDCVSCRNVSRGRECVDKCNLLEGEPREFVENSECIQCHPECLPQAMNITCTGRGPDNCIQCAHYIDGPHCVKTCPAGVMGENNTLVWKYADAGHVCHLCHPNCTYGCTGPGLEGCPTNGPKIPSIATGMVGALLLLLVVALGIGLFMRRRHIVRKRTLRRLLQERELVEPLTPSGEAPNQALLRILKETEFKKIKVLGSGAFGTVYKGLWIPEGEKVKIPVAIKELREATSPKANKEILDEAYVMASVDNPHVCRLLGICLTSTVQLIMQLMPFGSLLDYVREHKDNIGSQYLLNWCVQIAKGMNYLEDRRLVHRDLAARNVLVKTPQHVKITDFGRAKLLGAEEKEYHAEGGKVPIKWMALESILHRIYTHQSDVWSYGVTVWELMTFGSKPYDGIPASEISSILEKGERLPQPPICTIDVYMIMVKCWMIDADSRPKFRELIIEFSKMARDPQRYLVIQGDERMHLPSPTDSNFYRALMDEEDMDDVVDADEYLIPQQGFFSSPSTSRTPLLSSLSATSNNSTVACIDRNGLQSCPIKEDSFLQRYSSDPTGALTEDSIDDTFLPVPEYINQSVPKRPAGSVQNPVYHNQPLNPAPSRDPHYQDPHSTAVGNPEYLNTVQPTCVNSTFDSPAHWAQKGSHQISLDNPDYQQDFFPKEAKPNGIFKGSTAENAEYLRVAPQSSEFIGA
How it was run: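 Cells treated 16 h at 37 °C, 5% CO2 in medium with 0.2% DMSO; top final concentration 10 uM, 5-fold dilution, 8 doses. Lysates read by HTRF (665/620 nm); degradation % versus DMSO high control, DC50 from four-parameter fit, Dmax as maximal degradation.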

[3] = H1975 # 28 DTC cells; EGFR degradation, IC50 (DC50) from curve fit; read-out: DC50(nM) H1975 # 28 DTC
[4] = H1975 # 28 DTC cells; maximum percentage of inhibition (degradation)
[5] = BaF3-LTC cells; EGFR degradation, IC50 (DC50) from curve fit; read-out: DC50(nM) BaF3-LTC
[6] = BaF3-LTC cells; maximum percentage of inhibition (degradation); read-out: Dmax (%) BaF3-LTC
[7] = read-out: DC50(nM) H1975 # 28 DTC; H1975 # 28 DTC cells; EGFR degradation, IC50 (DC50) from curve fit
[8] = read-out: DC50(nM) BaF3-LTC; BaF3-LTC cells; EGFR degradation, IC50 (DC50) from curve fit
[9] = read-out: Dmax (%) BaF3-LTC, BaF3-LTC cells; maximum percentage of inhibition (degradation)

| SMILES | DC50 [1, 3] [nM] | Dmax (%) H1975 # 28 DTC [1, 4] [%] | DC50 [2, 5] [nM] | Dmax [2, 6] [%] | DC50 [1, 7] [nM] | DC50 [2, 8] [nM] | Dmax [2, 9] [%] | Dmax (%) BaF3-LTC ([2]; BaF3-LTC cells; maximum percentage of inhibition (degradation)) [%] |
| --- | --- | --- | --- | --- | --- | --- | --- | --- |
| CCc1ccc2c(P(C)(C)=O)c(Nc3nc(Nc4cc(CC)c(N5CCC(N6CCC(CCc7cc(F)c(C8CCC(=O)NC8=O)c(F)c7)CC6)CC5)cc4OC)ncc3Br)ccc2n1 (stereo not drawn) [Example 583, 3-(4-(2-(1′-(4-((5-bromo-4-((5-(dimethylphosphoryl)-2-ethylquinolin-6-yl)amino)pyrimidin-2-yl)amino)-2-ethyl-5-methoxyphenyl)-[1,4′-bipiperidin]-4-yl)ethyl)-2,6-difluorophenyl)piperidine-2,6-dione] | 2.7 | 76.91 | 17 | 92.9 | – | – | – | – |
| CCOc1cc(N2CCC(N3CCN(C(=O)[C@H]4CN(c5cc(F)cc6c5oc(=O)n6C5CCC(=O)NC5=O)CC4(C)C)CC3)CC2)c(CC)cc1Nc1ncc(Br)c(Nc2ccc3nc(CC)ccc3c2P(C)(C)=O)n1 (stereo partly drawn) [Example 480, 3-(7-((R)-4-(4-(1-(4-((5-bromo-4-((5-(dimethylphosphoryl)-2-ethylquinolin-6-yl)amino)pyrimidin-2-yl)amino)-5-ethoxy-2-ethylphenyl)piperidin-4-yl)piperazine-1-carbonyl)-3,3-dimethylpyrrolidin-1-yl)-5-fluoro-2-oxobenzo[d]oxazol-3(2H)-yl)piperidine-2,6-dione] | – | 69.54 | – | – | 7.82 | 18.9 | 89.4 | – |
| CCOc1cc(N2CCC(N3CCN(C(=O)COc4cccc5c4n(C)c(=O)n5C4CCC(=O)NC4=O)CC3)CC2)c(CC)cc1Nc1ncc(Br)c(Nc2ccc3nc(CC)ccc3c2P(C)(C)=O)n1 (stereo not drawn) [Example 637, 3-(4-(2-(4-(1-(4-((5-bromo-4-((5-(dimethylphosphoryl)-2-ethylquinolin-6-yl)amino)pyrimidin-2-yl)amino)-5-ethoxy-2-ethylphenyl)piperidin-4-yl)piperazin-1-yl)-2-oxoethoxy)-3-methyl-2-oxo-2,3-dihydro-1H-benzo[d]imidazol-1-yl)piperidine-2,6-dione] | 0.354 | 69.46 | 5.39 | 92.9 | – | – | – | – |
| CCc1ccc2c(P(C)(C)=O)c(Nc3nc(Nc4cc(CC)c(N5CCC(N6CCN(CCc7cc(F)c([C@H]8CCC(=O)NC8=O)c(F)c7)CC6)CC5)cc4OC4CC4)ncc3Br)ccc2n1 [Example 547, (R)-3-(4-(2-(4-(1-(4-((5-bromo-4-((5-(dimethylphosphoryl)-2-ethylquinolin-6-yl)amino)pyrimidin-2-yl)amino)-5-cyclopropoxy-2-ethylphenyl)piperidin-4-yl)piperazin-1-yl)ethyl)-2,6-difluorophenyl)piperidine-2,6-dione] | 0.647 | 87.96 | 4.45 | 89.3 | – | – | – | – |
| CCOc1cc(N2CCC(N3CCN(C(=O)[C@@H]4CCN(c5cccc6c5oc(=O)n6C5CCC(=O)NC5=O)C4)CC3)CC2)c(CC)cc1Nc1ncc(Br)c(Nc2ccc3nc(CC)ccc3c2P(C)(C)=O)n1 (stereo partly drawn) [Example 478, 3-(7-((R)-3-(4-(1-(4-((5-bromo-4-((5-(dimethylphosphoryl)-2-ethylquinolin-6-yl)amino)pyrimidin-2-yl)amino)-5-ethoxy-2-ethylphenyl)piperidin-4-yl)piperazine-1-carbonyl)pyrrolidin-1-yl)-2-oxobenzo[d]oxazol-3(2H)-yl)piperidine-2,6-dione] | – | 80.49 | – | – | 0.645 | 3.05 | – | 88.22 |
| CCOc1cc(N2CCC(N3CCN(CCc4cc(F)c(F)c5c4n(CC)c(=O)n5C4CCC(=O)NC4=O)CC3)CC2)c(CC)cc1Nc1ncc(Br)c(Nc2ccc3nc(CC)ccc3c2P(C)(C)=O)n1 (stereo not drawn) [Example 742, 3-(4-(2-(4-(1-(4-((5-bromo-4-((5-(dimethylphosphoryl)-2-ethylquinolin-6-yl)amino)pyrimidin-2-yl)amino)-5-ethoxy-2-ethylphenyl)piperidin-4-yl)piperazin-1-yl)ethyl)-3-ethyl-6,7-difluoro-2-oxo-2,3-dihydro-1H-benzo[d]imidazol-1-yl)piperidine-2,6-dione] | 3.52 | 68.91 | 36.5 | – | – | – | – | – |
| CCOc1cc(N2CCC(N3CCN(C(=O)[C@@H]4CCN(c5cccc6c5oc(=O)n6C5CCC(=O)NC5=O)C4)CC3)CC2)c(CC)cc1Nc1ncc(Br)c(Nc2ccc3nc(CC)ccc3c2P(C)(C)=O)n1 (stereo partly drawn) [Example 445, 3-(7-((R)-3-(4-(1-(4-((5-bromo-4-((5-(dimethylphosphoryl)-2-ethylquinolin-6-yl)amino)pyrimidin-2-yl)amino)-5-ethoxy-2-ethylphenyl)piperidin-4-yl)piperazine-1-carbonyl)pyrrolidin-1-yl)-2-oxobenzo[d]oxazol-3(2H)-yl)piperidine-2,6-dione] | – | 79.2 | – | – | 0.877 | 5.24 | 87.7 | – |
| CCc1cc(Nc2ncc(Br)c(Nc3ccc4nc(C5CC5)ccc4c3P(C)(C)=O)n2)c(OC)cc1N1CCC(N2CCN(CCc3cc(F)c([C@H]4CCC(=O)NC4=O)c(F)c3)CC2)CC1 [Example 741, (R)-3-(4-(2-(4-(1-(4-((5-bromo-4-((2-cyclopropyl-5-(dimethylphosphoryl)quinolin-6-yl)amino)pyrimidin-2-yl)amino)-2-ethyl-5-methoxyphenyl)piperidin-4-yl)piperazin-1-yl)ethyl)-2,6-difluorophenyl)piperidine-2,6-dione] | 0.761 | 80.67 | 11.2 | – | – | – | – | – |
| CCOc1cc(N2CCC(N3CCN(CCc4ccc(F)c5c4n(CC)c(=O)n5C4CCC(=O)NC4=O)CC3)CC2)c(CC)cc1Nc1ncc(Br)c(Nc2ccc3c(=O)n(CC)ncc3c2P(C)(C)=O)n1 (stereo not drawn) [Example 594, 3-(4-(2-(4-(1-(4-((5-bromo-4-((5-(dimethylphosphoryl)-2-ethyl-1-oxo-1,2-dihydrophthalazin-6-yl)amino)pyrimidin-2-yl)amino)-5-ethoxy-2-ethylphenyl)piperidin-4-yl)piperazin-1-yl)ethyl)-3-ethyl-7-fluoro-2-oxo-2,3-dihydro-1H-benzo[d]imidazol-1-yl)piperidine-2,6-dione] | 0.818 | 85.75 | 17 | 85.5 | – | – | – | – |
| CCOc1cc(N2CCC(N3CCN(CCc4c(F)ccc5c4oc(=O)n5C4CCC(=O)NC4=O)CC3)CC2)c(CC)cc1Nc1ncc(Br)c(Nc2ccc3nc(CC)ccc3c2P(C)(C)=O)n1 (stereo not drawn) [Example 471, 3-(7-(2-(4-(1-(4-((5-bromo-4-((5-(dimethylphosphoryl)-2-ethylquinolin-6-yl)amino)pyrimidin-2-yl)amino)-5-ethoxy-2-ethylphenyl)piperidin-4-yl)piperazin-1-yl)ethyl)-6-fluoro-2-oxobenzo[d]oxazol-3(2H)-yl)piperidine-2_6-dione] | 1.98 | 73.66 | 36 | 83.9 | – | – | – | – |
| COc1cc(N2CCC(N3CCN(C(=O)[C@H]4CCN(c5cc(F)c(C6CCC(=O)NC6=O)c(F)c5)C4)CC3)CC2)c(C)cc1Nc1ncc(Br)c(Nc2ccc3c(=O)n(C)ncc3c2P(C)(C)=O)n1 (stereo partly drawn) [Example 513, 3-(4-((S)-3-(4-(1-(4-((5-bromo-4-((5-(dimethylphosphoryl)-2-methyl-1-oxo-1,2-dihydrophthalazin-6-yl)amino)pyrimidin-2-yl)amino)-5-methoxy-2-methylphenyl)piperidin-4-yl)piperazine-1-carbonyl)pyrrolidin-1-yl)-2,6-difluorophenyl)piperidine-2,6-dione] | 1.37 | 78.24 | 10.2 | 85.2 | – | – | – | – |

Source: patent US20230265116A1, “DEGRADATION OF (EGFR) BY CONJUGATION OF EGFR INHIBITORS WITH E3 LIGASE LIGAND AND METHODS OF USE” (BEIGENE, LTD., priority 2020, published 2023)
